The text below walks through data of US20230081426A1, “COMPOUNDS AND METHODS FOR KRAS MODULATION AND INDICATIONS THEREFOR” (Plexxikon Inc., priority 2020, published 2023).

Structures are written as SMILES.

In assay [1] the target is T1, G12D-mutant human KRAS (amino acid residues 1-188) (Homo sapiens, UniProt P01116, G12D).
T1 construct: G12D or G12C-mutant human KRAS (amino acid residues 1-188) with FLAG tag; made in house; host or cells: E. coli
In words: KRAS Binding Disruption Assay (AlphaScreen; biotinylated KRpep-2d analogue or RAF1-RBD), G12D. The settings on record: KRAS G12D; geometric mean; read-out: KRAS GMean IC50 (uM) MUTATION: G12D. In outline: (§1)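 Displacement format with mutant KRAS, biotinylated KRpep-2d analogue or RAF1-RBD (5-20 nM each) at pH 7.5 with 5 mM MgCl2.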
Background: In Alpha technology, singlet oxygen from a donor bead excites a nearby acceptor bead.

In assay [2] the target is T2, G12C-mutant human KRAS (amino acid residues 1-188) (Homo sapiens, UniProt P01116, G12C).
T2 construct: G12D or G12C-mutant human KRAS (amino acid residues 1-188) with FLAG tag; made in house; host or cells: E. coli
Description: KRAS Binding Disruption Assay (AlphaScreen; biotinylated KRpep-2d analogue or RAF1-RBD), G12C. The settings on record: geometric mean, read-out: KRAS GMean IC50 (uM) MUTATION: G12C. In outline: as §1

Assay [3] concerns the target T3, G12V-mutant human KRAS (amino acid residues 1-188) (Homo sapiens, UniProt P01116, G12V).
T3 construct: G12V-mutant human KRAS (amino acid residues 1-188) with FLAG tag was purified from E. coli; made in house; host or cells: E. coli
In words: KRAS Binding Competition Assay (AlphaScreen; biotinylated KRpep-2d analogue), G12V. The following applies: geometric mean, read-out: KRAS GMean IC50 (uM) MUTATION: G12V.

Turning to `CO[C@@H]1C[C@@H](COc2nc(N3C[C@H]4CC[C@@H](C3)N4)c3ccc(-c4cc(O)cc5ccccc45)cc3n2)N(C)C1` [P-0060, 4-(4-((1R,5S)-3,8-diazabicyclo[3.2.1]octan-3-yl)-2-(((2S,4R)-4-methoxy-1-methylpyrrolidin-2-yl)methoxy)quinazolin-7-yl)naphthalen-2-ol], the half-maximal inhibitory concentration (IC50) in assay [1], in assay [2] and in assay [3] was 0.0001 to 10 µM throughout.
For the compound `CCC(=O)N1[C@@H]2CC[C@H]1CN(c1nc(OCC34CCCN3CCC4)nc3cc(-c4cc(O)cc5ccccc45)ccc13)C2` [P-0063, 1-((1R,5S)-3-(7-(3-hydroxynaphthalen-1-yl)-2-((tetrahydro-1H-pyrrolizin-7a(5H)-yl)methoxy)quinazolin-4-yl)-3,8-diazabicyclo[3.2.1]octan-8-yl)propan-1-one], the IC50 in assay [1], in assay [2] and in assay [3] was 0.0001 to 10 µM in each case.
For the compound `O=C(O)CCC(=O)N1[C@@H]2CC[C@H]1CN(c1nc(OCC34CCCN3CCC4)nc3cc(-c4cc(O)cc5ccccc45)ccc13)C2` [P-0064, 4-((1R,5S)-3-(7-(3-hydroxynaphthalen-1-yl)-2-((tetrahydro-1H-pyrrolizin-7a(5H)-yl)methoxy)quinazolin-4-yl)-3,8-diazabicyclo[3.2.1]octan-8-yl)-4-oxobutanoic acid], the IC50 in assay [1], in assay [2] and in assay [3] was 0.0001 to 10 µM throughout.
In the case of `O=C(c1ccccn1)N1[C@@H]2CC[C@H]1CN(c1nc(OCC34CCCN3CCC4)nc3cc(-c4cc(O)cc5ccccc45)ccc13)C2` [P-0065, ((1R,5S)-3-(7-(3-hydroxynaphthalen-1-yl)-2-((tetrahydro-1H-pyrrolizin-7a(5H)-yl)methoxy)quinazolin-4-yl)-3,8-diazabicyclo[3.2.1]octan-8-yl)(pyridin-2-yl)methanone], the values for the IC50 in assay [1], in assay [2] and in assay [3] were 10 to 100 µM, 0.0001 to 10 µM and 0.0001 to 10 µM, respectively.
With `CN(C)CC(=O)N1[C@@H]2CC[C@H]1CN(c1nc(OCC34CCCN3CCC4)nc3cc(-c4cc(O)cc5ccccc45)ccc13)C2` [P-0066, 2-(dimethylamino)-1-((1R,5S)-3-(7-(3-hydroxynaphthalen-1-yl)-2-((tetrahydro-1H-pyrrolizin-7a(5H)-yl)methoxy)quinazolin-4-yl)-3,8-diazabicyclo[3.2.1]octan-8-yl)ethan-1-one], the IC50 in assay [1], in assay [2] and in assay [3] was 0.0001 to 10 µM each time.
With `NC(=O)N1[C@@H]2CC[C@H]1CN(c1nc(OCC34CCCN3CCC4)nc3cc(-c4cc(O)cc5ccccc45)ccc13)C2` [P-0067, (1R,5S)-3-(7-(3-hydroxynaphthalen-1-yl)-2-((tetrahydro-1H-pyrrolizin-7a(5H)-yl)methoxy)quinazolin-4-yl)-3,8-diazabicyclo[3.2.1]octane-8-carboxamide], the IC50 in assay [1], in assay [2] and in assay [3] was 0.0001 to 10 µM in each case.
`COC(=O)CCC(=O)N1[C@@H]2CC[C@H]1CN(c1nc(OCC34CCCN3CCC4)nc3cc(-c4cc(O)cc5ccccc45)ccc13)C2` [P-0068, methyl 4-((1R,5S)-3-(7-(3-hydroxynaphthalen-1-yl)-2-((tetrahydro-1H-pyrrolizin-7a(5H)-yl)methoxy)quinazolin-4-yl)-3,8-diazabicyclo[3.2.1]octan-8-yl)-4-oxobutanoate]: the IC50 in assay [1], in assay [2] and in assay [3] was 0.0001 to 10 µM throughout.
In the case of `Cc1cccc2cc(O)cc(-c3ccc4c(N5C[C@H]6CC[C@@H](C5)N6)nc(OCC56CCCN5CCC6)nc4c3F)c12` [P-0085, 4-(4-((1R,5S)-3,8-diazabicyclo[3.2.1]octan-3-yl)-8-fluoro-2-((tetrahydro-1H-pyrrolizin-7a(5H)-yl)methoxy)quinazolin-7-yl)-5-methylnaphthalen-2-ol], the 50% inhibitory concentration (IC50) in assay [1], in assay [2] and in assay [3] was 0.0001 to 10 µM each time.
Turning to `Cc1cccc2cc(O)cc(-c3c(F)cc4c(N5C[C@H]6CC[C@@H](C5)N6)nc(OCC56CCCN5CCC6)nc4c3F)c12` [P-0088, 4-(4-((1R,5S)-3,8-diazabicyclo[3.2.1]octan-3-yl)-6,8-difluoro-2-((tetrahydro-1H-pyrrolizin-7a(5H)-yl)methoxy)quinazolin-7-yl)-5-methylnaphthalen-2-ol], the IC50 in assay [1], in assay [2] and in assay [3] was 0.0001 to 10 µM throughout.
For the compound `CCCNS(=O)(=O)N1[C@@H]2CC[C@H]1CN(c1nc(OCC34CCCN3CCC4)nc3cc(-c4cc(O)cc5ccccc45)ccc13)C2` [P-0096, (1R,5S)-3-(7-(3-hydroxynaphthalen-1-yl)-2-((tetrahydro-1H-pyrrolizin-7a(5H)-yl)methoxy)quinazolin-4-yl)-N-propyl-3,8-diazabicyclo[3.2.1]octane-8-sulfonamide], the half-maximal inhibitory concentration (IC50) (commonly the concentration needed to halve the response being measured) in assay [1] lay in the range of 0.0001 to 10 µM; in assay [2] it was 0.0001 to 10 µM; in assay [3] it was 10 to 100 µM.
For the compound `O=C(c1n[nH]c(=O)[nH]1)N1[C@@H]2CC[C@H]1CN(c1nc(OCC34CCCN3CCC4)nc3cc(-c4cc(O)cc5ccccc45)ccc13)C2` [P-0099, 5-((1R,5S)-3-(7-(3-hydroxynaphthalen-1-yl)-2-((tetrahydro-1H-pyrrolizin-7a(5H)-yl)methoxy)quinazolin-4-yl)-3,8-diazabicyclo[3.2.1]octane-8-carbonyl)-2,4-dihydro-3H-1,2,4-triazol-3-one], the half-maximal inhibitory concentration (IC50) in assay [1], in assay [2] and in assay [3] was 0.0001 to 10 µM each time.
For `NCC(O)CC(=O)N1[C@@H]2CC[C@H]1CN(c1nc(OCC34CCCN3CCC4)nc3cc(-c4cc(O)cc5ccccc45)ccc13)C2` (stereo partly drawn) [P-0100, 4-amino-3-hydroxy-1-((1R,5S)-3-(7-(3-hydroxynaphthalen-1-yl)-2-((tetrahydro-1H-pyrrolizin-7a(5H)-yl)methoxy)quinazolin-4-yl)-3,8-diazabicyclo[3.2.1]octan-8-yl)butan-1-one], the IC50 in assay [1], in assay [2] and in assay [3] was 0.0001 to 10 µM throughout.
As for `Oc1cc(-c2ccc3c(N4C[C@H]5CC[C@@H](C4)N5)nc(OCC45CCCCN4CCC5)nc3c2)c2ccccc2c1` (stereo partly drawn) [P-0102, 4-(4-((1R,5S)-3,8-diazabicyclo[3.2.1]octan-3-yl)-2-((hexahydroindolizin-8a(1H)-yl)methoxy)quinazolin-7-yl)naphthalen-2-ol], the IC50 in assay [1], in assay [2] and in assay [3] was 0.0001 to 10 µM throughout.
With `CN1CCC[C@H]1COc1nc(N2C[C@H]3CC[C@@H](C2)N3C(N)=O)c2ccc(-c3cc(O)cc4ccccc34)c(F)c2n1` [P-0103, (1R,5S)-3-(8-fluoro-7-(3-hydroxynaphthalen-1-yl)-2-(((S)-1-methylpyrrolidin-2-yl)methoxy)quinazolin-4-yl)-3,8-diazabicyclo[3.2.1]octane-8-carboxamide], the IC50 in assay [1], in assay [2] and in assay [3] was 0.0001 to 10 µM throughout.
As for `CN1CCC[C@H]1COc1nc(N2C[C@H]3CC[C@@H](C2)N3C(=O)NC2CCNC2)c2ccc(-c3cc(O)cc4ccccc34)c(F)c2n1` (stereo partly drawn) [P-0106, (1R,5S)-3-(8-fluoro-7-(3-hydroxynaphthalen-1-yl)-2-(((S)-1-methylpyrrolidin-2-yl)methoxy)quinazolin-4-yl)-N-(pyrrolidin-3-yl)-3,8-diazabicyclo[3.2.1]octane-8-carboxamide], the IC50 in assay [1], in assay [2] and in assay [3] was 0.0001 to 10 µM each time.
